# Test results: article PMC11725581, “Developing novel Lin28 inhibitors by computer aided drug design” (Cell Death Discovery, 2025)
# How the values were obtained:
# [1] = tested on: Kuramochi cells; assay: Cell proliferation (Incucyte), Kuramochi; format: cell-based; conditions: Lin28a/Lin28b-positive
# From the text: (§1) To further evaluate whether the suppressive effects of Ln268 are specific to Lin28-positive cancer cells, we compared cell growth rates of DuNE (Lin28b-positive line) and Du145 (Lin28b-negative line), both of which are Lin28a-negative. DuNE has the same genomic background with Du145 except for the transduction of the SRRM4 gene. […] Furthermore, Ln268 had no impact on the cell growth of DuNE(KO) cells, in which the Lin28b gene was knocked out by CRISPR (Fig. 5C). […] We also tested several ovarian and endometrial cancer cell lines with different Lin28a and Lin28b expression profiles (Fig. 5E).
# [2] = target: T1, Lin28b ZKD (Homo sapiens, UniProt Q6ZN17); assay: Fluorescence polarization (FP) assay, Lin28b ZKD:pre-let-7d interaction; format: binding; conditions: FP / EMSA
# T1 sequence (Q6ZN17 127-166 limits assumed): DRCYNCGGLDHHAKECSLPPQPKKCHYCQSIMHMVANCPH
# Procedure: We conducted two biochemical assays, FP and EMSA, to validate the predicted compounds. To optimize the FP assays, we performed a series of titrations using: (1) FAM-labeled pre-let-7d RNA probe, (2) Lin28b ZKD protein, and (3) non-labeled pre-let-7 probe as a competitor (Fig. 2A). These assays yielded the optimal concentrations required for the subsequent FP validation assays, namely 10 nM for the pre-let-7d probe and 1 μM for Lin28b ZKD protein. The FP signal from the free probe was set as 0%, while the signal from the probe-ZKD complex in the absence of compounds was set as 100%. C1632 was used as a control Lin28 inhibitor (Fig. 2B). […] Since the docking pocket is almost identical between Lin28a and Lin28b homologs, we repeated the FP assays using Lin28a ZKD (Figure S2).
# The fluorescein amidites (FAM)-tagged pre-Let-7d probe with the sequence of […] was purchased from Integrated DNA Technologies (IDT). The probe at the concentrations ranging from 1 nM to 50 uM was incubated with Lin28B (ZKD) or Lin28 (CSD+ZKD) to a final volume of 30 uL at room temperature for 20 min. To read the fluorescence, a TECAN 500 machine was used. Fluorescence polarization was calculated using the following equation:
# P=(Fparrallel−Fperpendicular)/(Fparrallel+FperpendicularP)
# where P is the fluorescence polarization reading, F parallel is the fluorescence intensity acquired from the parallel excitation plane, and F perpendicular is the fluorescence intensity acquired from the perpendicular direction of the excitation plane. The total fluorescence intensity is estimated using the following equation:
# F=Fparallel+2FperpendicularF.
# All the raw FP signal data from the TECAN 500 FP results were analyzed using Prism 8.0 (GraphPad, San Diego, CA, USA); normalized curves were plotted and IC50 values were estimated. All FP data were repeated three to five times.
# Figure S1. Lin28b ZKD protein was incubated with the indicated compounds at the concentration of 0, 0.1, 0.2, 0.5, 1, 2, 5, 10, 20, 50, 100, and 200uM. FP signals were measured and plotted relative to that from vehicle.
# [3] = target: T1, Lin28b ZKD; assay: EMSA, Lin28b ZKD:pre-let-7d complex formation; format: binding; conditions: 1 μM Lin28 ZKD, 10 nM IRDye800-labeled pre-let-7d probe
# Procedure: We next validated the newly developed compounds using EMSA, a non-florescent-based assay to detect Lin28b ZKD:pre-let-7 complex formation. Similar to the FP assays, we first optimized the experimental conditions by titrating: (1) IRDye800-labeled pre-let-7d RNA probe, (2) Lin28b ZKD protein, and (3) non-labeled pre-let-7 probe as a competitor (Fig. 2C). For the validation experiments, 1 μM Lin28 ZKD and 10 nM of IRDye800-labeled pre-let-7d probe were mixed with each candidate compound. Compounds C1632 and Ln15 were used as control Lin28 inhibitors, respectively. […] Regardless, we use these two biochemical assays to shortlist the most promising compounds for further characterization. […] While our inhibitors directly target the Lin28 ZKD, it is unclear whether C1632 may bind to domains other than the ZKD or allosterically disrupt Lin28’s capacity to bind its RNA substrates.
# EMSA followed the standard protocols we published. An IRDye800CWN-labeled pre-Let-7d RNA probe (5’-IRD800CWN-[…]-3’) was purchased from IDT (Coralville, IA, USA). Lin28a or Lin28b proteins were incubated with 300 nM of probe in a standard 20 uL EMSA reaction in a reaction buffer containing 20 mM HEPES-NaOH, pH 7.4, 2 mM DTT, 3 mM MgCl2, 0.05% NP-40, protease inhibitors, and 0.1 ug poly[dI:dC]. After incubation for 30 min at 37 °C, reactions were loaded onto 4% non-denatured polyacrylamide gel in 0.5× TBE buffer. The RNA oligo bands were visualized by using the Li-Cor Odyssey 9120 Infrared Imaging System.
# [4] = tested on: Du145 spheroids; assay: Du145 spheroid growth; format: cell-based; conditions: 0-192 h
# From the text: as §1
# For a spheroid generation, 1000 cells/well were seeded in 96-well ULA round-bottomed plates (Corning, Amsterdam) using a multichannel pipette. 3D multicellular spheroids were spontaneously generated after 24 h culture. Plates were incubated for 6 days at 37 °C, 5% CO2, and 95% humidity. DuNE and Du145 cells were cultured in DMEM with 10% FBS. Fully automated image analysis of tumor spheroids was carried out with the Incucyte® S3 Live-Cell Analysis System. The size and shape of multicellular spheroids were analyzed by using the Incucyte® Spheroid Analysis Software Module.
# [5] = tested on: VOA1066 cells; assay: Cell proliferation (Incucyte), VOA1066; format: cell-based
# From the text: as §1
smiles,measurement,setting,value
O=c1[nH]c(Nc2ccc(F)cc2O)cs1 [Ln268],effect on growth of Kuramochi cells,[1],suppressed the growth
same,activity in protein-based assays,[2],performed less effectively than Ln15
same,inhibition of Lin28b ZKD:pre-let-7d complex formation (EMSA),[3],capable of inhibiting Lin28:pre-let-7d complex formation in a dose-dependent manner
same,effect on Du145 spheroids,[4],no effect
same,effect on growth of VOA1066 cells,[5]; Lin28a/Lin28b-positive,suppressed the growth
same,IC50,[5]; cells express both Lin28a and Lin28b at relatively high levels,0.4 µM
